One substance from patent US20110130346A1, “PEPTIDE CONJUGATES FOR DELVERY OF BIOLOGICALLY ACTIVE COMPOUNDS” (ISIS INNOVATION LIMITED, priority 2008, published 2011) can be followed below.

In series [1] the test system is exon and intron 23 of the dystrophin gene. Description: Example 2: systemic intravenous injection, Western blot of dystrophin. The class given is in vivo, mdx mice. The note with it: intravenous 25, 50 and 100 mg/kg. The source says: (§1) To develop AO splice correction therapy for DMD it is essential to establish effective systemic dystrophin correction since DMD is a systemic disease affecting all skeletal muscles, including the diaphragm, and cardiac muscle. Other AO chemistries, including 2′OMePS and PMO chemistries, have been reported to yield variable dystrophin splice correction following intravenous systemic delivery in mdx mice, with high systemic doses being required to detect appreciable efficacy. Here we wished to evaluate the potential of neutral PNA AOs for systemic splice correction in body-wide muscles, and initially evaluated a dose-response using three intravenous single PNA doses of 25, 50 and 100 mg/kg administered to 6 week old mdx mice via tail vein injections. […]
The collected sections were placed in a 1.5 ml polypropylene eppendorf tube (Anachem, UK) on dry ice. […] The supernatant was collected and the protein concentration was quantified by Bradford assay (Sigma, UK). […] The bound primary antibody was detected by horseradish peroxidise-conjugated rabbit anti-mouse IgGs and the ECL Western Blotting Analysis system (Amersham Pharmacia Biosciences, UK). The intensity of the bands obtained from treated mdx muscles was measured by Image J software; the quantification is based on band intensity and area, and is compared with that from normal muscles of C57BL6 mice.

The test system is the same in series [2]. Description: Example 2: systemic intravenous tail vein injection, dystrophin immunostaining of muscles. The format is in vivo, mdx mice.
Description: as §1
Sections of 8 μm were cut from at least two-thirds of the muscle length of TA, quadriceps, gastrocnemius, biceps, abdominal wall and diaphragm muscles and cardiac muscle at 100 μm intervals. […] The maximum number of dystrophin-positive fibres in one section was counted using the Zeiss AxioVision fluorescence microscope. […] Polyclonal antibodies were detected by goat-anti-rabbit IgGs Alexa Fluro 594 (Molecular Probe, UK). Polyclonal antibodies were detected by goat-anti-rabbit IgGs Alexa 594 (Molecular Probe, UK).

For series [3] the test system is unchanged. As to the kind of experiment: Example 2: intramuscular injection, Western blot of dystrophin. The format is in vivo, mdx mice. The note with it: 5 ug intramuscular. As for the experimental part: For intramuscular studies the TA muscle of each experimental mdx mouse was injected with a […] dose of PNA and PNA-peptide conjugates with saline at a final concentration of 125 μg/ml. For systemic intravenous injections, Various amount of PNA or PNA-peptide conjugates in 80 μl saline buffer were injected into tail vein of mdx mice at the final dose of 25 mg/kg, 50 mg/kg and 100 mg/kg, respectively. The animals were killed at various time points after injection by CO2 inhalation and tissues were removed and snap-frozen in liquid nitrogen-cooled isopentane and stored at −80° C.
The collected sections were placed in a 1.5 ml polypropylene eppendorf tube (Anachem, UK) on dry ice. The tissue sections were lysed with 150 μl protein extraction buffer containing 125 mmol/l Tris-HCl (pH=6.8), 10% sodium dodecyl sulphate, 2 mol/l urea, 20% glycerol, and 5% 2-mercaptoethanol. […] The supernatant was collected and the protein concentration was quantified by Bradford assay (Sigma, UK). […] The bound primary antibody was detected by horseradish peroxidise-conjugated rabbit anti-mouse IgGs and the ECL Western Blotting Analysis system (Amersham Pharmacia Biosciences, UK). The intensity of the bands obtained from treated mdx muscles was measured by Image J software; the quantification is based on band intensity and area, and is compared with that from normal muscles of C57BL6 mice.
(In western blotting, separated proteins are transferred to a membrane and probed.)

Series [4] has the same test system. As to the kind of experiment: Example 2: systemic intravenous injection, RT-PCR of exon skipping. The format is in vivo, mdx mice. Particulars: intravenous 25, 50 and 100 mg/kg; gastrocnemius and abdominal muscles, not other muscles. The source says: To develop AO splice correction therapy for DMD it is essential to establish effective systemic dystrophin correction since DMD is a systemic disease affecting all skeletal muscles, including the diaphragm, and cardiac muscle. Other AO chemistries, including 2′OMePS and PMO chemistries, have been reported to yield variable dystrophin splice correction following intravenous systemic delivery in mdx mice, with high systemic doses being required to detect appreciable efficacy. Here we wished to evaluate the potential of neutral PNA AOs for systemic splice correction in body-wide muscles, and initially evaluated a dose-response using three intravenous single PNA doses of 25, 50 and 100 mg/kg administered to 6 week old mdx mice via tail vein injections. Dystrophin expression was studied by immunostaining of muscle tissue sections from various peripheral muscles (including quadriceps, gastrocnemius, biceps, abdominal wall, diaphragm) and heart muscle three weeks after AO administration (FIG. 7A). […] Measures of phenotypic correction, including serum biochemical measurements of creatine kinase and AST/ALT enzyme levels were negative (FIGS. 7C and D).
Total RNA was extracted from tested muscle tissues with Trizol (Invitrogen, UK) and 200 ng of RNA template was used for 20 μl RT-PCR with OneStep RT-PCR kit (Qiagen, UK). […]

The next series deals with H2K mdx cells. Description: WST-1 cell viability assay in H2K mdx cells. The class given is cell-based, mouse. The note with it: 2.5 μM to 25 μM, 12 hours. As for the experimental part: The possible toxicity of the PNA-peptide conjugates in H2K mdx cells was examined using a WST-1 assay, which measures the metabolic activity of viable cells. Cells were grown in 96-well microplates overnight and treated with unmodified PNA as a control or PNA-peptide conjugates for 12 hours, and then incubated with WST-1 for approximately 4 hours. During this incubation period, viable cells convert WST-1 to a water-soluble formazan dye which is then quantified using an ELISA plate reader.
(In general: Tetrazolium assays rely on reduction of a dye to a coloured formazan, in cell work by metabolically active cells.)

In the case of 5′-ggccaaaccteggcttacct-3′ [PNA], the “dystrophin protein (Western blot)” value is given as “Under detectable level” in series [1] and “considerably reduced levels” in series [3] (20 weeks post administration). The “dose response of dystrophin positive fibres” value in series [2] (intravenous 25, 50 and 100 mg/kg) was “No evidence of a dose response”. The “number of dystrophin positive fibres in peripheral muscles and heart” value in series [2] (single intravenous 25, 50 and 100 mg/kg, 6 week old mdx mice, three weeks, all muscle groups except diaphragm and heart) is listed as “low nevertheless showing a significant increase”. Further, the “level of dystrophin protein restored (Western blot)” value in series [3] (8 week time point) is listed as “about 20 % of normal levels”. Further, the “exon skipping (RT-PCR)” value in series [4] is “only very level of exon skipping”. Further, the “Toxicity or inhibition of cell proliferation (WST-1)” value in the series on H2K mdx cells is given as “not observed”.
